# Tests used:
# sarcoma [1] = assay: Clinical outcome of sarcoma patients treated with ET-743 (Example 1, 160 patients; by XPG mRNA, XPG protein, BRCA1 mRNA); format: in vivo, human; details: whole cohort, Kaplan-Meier
# Description: In this study, 160 paraffin embedded tumor samples from sarcoma patients before the treatment with any chemotherapy agent have been evaluated.
# (§1) The majority of patients were treated before with one or several chemotherapy agents and later they followed a treatment with ET-743. The dosage of intravenous infusion (IV) of ET-743 given to the different patients was within the range of 1.650-1.0 mg/m^2; the schedules were 24 hours or 3 hour IV infusion with a three week interval between cycles; and the number of cycles ranged from 1 up to 44 cycles in some patients.
# The clinical data from the patients was collected in the clinical data collection form and matched with the molecular data after completion of the mRNA and protein expression levels determination (Table 1).
# SAS v8.2 (statistical software) was used for all the statistical analysis. The statistical techniques for univariate, bivariate and multivariate variables were chosen, according with the nature of variables that will be analysed, i.e. when the dependent variable is a temporal variable with censor status the Cox regression would be applied, when correlation between variables will be computed the Pearson and/or Spearman measures would be used. P-values below 0.05 will be considered statistically significant in all tests, when appropriate 95% confidence intervals will be presented too.
# A total of 160 paraffin embedded tumor samples providing evaluable results for mRNA or protein expression were analysed. […] These samples came from sarcoma patients before being treated with a chemotherapy agent.
# sarcoma [2] = assay: Clinical outcome of sarcoma patients treated with ET-743 (Example 2, 168 patients; by XPG SNP Asp1104His genotype, XPG mRNA, XPG protein); format: in vivo, human; parameters: surviving patients at two years after treatment / Tumor Control Rate (CR+PR+MR+SD≧6 mo) / patients achieving progression free survival ≧6 months (PFS6) / survival at 12 months / rate of survival after 2 years: concentration or dose not given beside the values
# Description: In this study, 168 paraffin embedded tumor samples from sarcoma patients before the treatment with any chemotherapy agent have been evaluated.
# as §1
# The clinical data from the patients was collected in the clinical data collection form and matched with the molecular data (Table 5)
# A total of 168 paraffin embedded tumor samples providing evaluable results for at least one of the biomarkers (XPGmRNA, XPG protein, XPGAsp1104His or BRCA 1 mRNA) were analysed.
# [3] = whole cohort, Kaplan-Meier (FIG. 8)
compound,measurement,setting,value
"COc1cc2c(cc1O)CCN[C@]21CS[C@@H]2c3c(OC(C)=O)c(C)c4c(c3[C@H](COC1=O)N1[C@@H]2[C@H]2c3c(cc(C)c(OC)c3O)C[C@@H]([C@@H]1O)N2C)OCO4 [ET-743, ecteinascidin 743]",Median Survival,sarcoma [1],17.7 months
same,PFS6 rate,sarcoma [1],42.1%
same,median progression free survival,sarcoma [1],3.8 months
same,Minor Responses (MR),sarcoma [2]; 147 evaluable patients,6.8%
same,Tumor Control Rate (CR+PR+MR+SD≧6 mo),sarcoma [2]; 147 evaluable patients,44.9%
same,"overall response rate (RR), Complete+Partial Responses",sarcoma [2]; 147 evaluable patients,15.6%
same,patients achieving progression free survival ≧6 months (PFS6),sarcoma [2]; 147 evaluable patients,39.5%
same,Median PFS,"sarcoma [2]; Asp/Asp XPG (W), XPG mRNA < 1.55",1.8 months
same,Median PFS,"sarcoma [2]; Asp/Asp XPG (W), XPG protein 0 + 1",2.9 months
same,Median PFS,"sarcoma [2]; Asp/His + His/His XPG (H + M), XPG mRNA < 1.55",3.3 months
same,Median PFS,"sarcoma [2]; Asp/His + His/His XPG (H + M), XPG protein 0 + 1",3.3 months
same,Median OS,"sarcoma [2]; H + M, XPG mRNA < 1.55",9.0 months
same,OS at 12 months,"sarcoma [2]; H + M, XPG mRNA < 1.55",39.1%
same,PFS at 6 months,"sarcoma [2]; H + M, XPG mRNA < 1.55",31.3%
same,Median OS,"sarcoma [2]; H + M, XPG mRNA >= 1.55",5.0 months
same,Median PFS,"sarcoma [2]; H + M, XPG mRNA >= 1.55",2.9 months
same,OS at 12 months,"sarcoma [2]; H + M, XPG mRNA >= 1.55",36.9%
same,PFS at 6 months,"sarcoma [2]; H + M, XPG mRNA >= 1.55",15.4%
same,Median OS,"sarcoma [2]; H + M, XPG protein 0 + 1",6.2 months
same,OS at 12 months,"sarcoma [2]; H + M, XPG protein 0 + 1",23.7%
same,OS at 24 months,"sarcoma [2]; H + M, XPG protein 0 + 1",0%
same,PFS at 6 months,"sarcoma [2]; H + M, XPG protein 0 + 1",26.3%
same,Median OS,"sarcoma [2]; H + M, XPG protein 2 + 3",12.2 months
same,Median PFS,"sarcoma [2]; H + M, XPG protein 2 + 3",3.4 months
same,OS at 12 months,"sarcoma [2]; H + M, XPG protein 2 + 3",52.6%
same,OS at 24 months,"sarcoma [2]; H + M, XPG protein 2 + 3",0%
same,PFS at 6 months,"sarcoma [2]; H + M, XPG protein 2 + 3",27.3%
same,rate of survival after 2 years,sarcoma [2]; M+H genotype and high XPG mRNA expression,0%
same,rate of survival after 2 years,sarcoma [2]; M+H genotype and low XPG mRNA expression,39.1%
same,rate of survival after 2 years,sarcoma [2]; W genotype and high XPG mRNA expression,66.9%
same,rate of survival after 2 years,sarcoma [2]; W genotype and low XPG mRNA expression,28.9%
same,Median OS,"sarcoma [2]; W, XPG mRNA < 1.55",8.6 months
same,OS at 12 months,"sarcoma [2]; W, XPG mRNA < 1.55",28.9%
same,PFS at 6 months,"sarcoma [2]; W, XPG mRNA < 1.55",26.3%
same,Median OS,"sarcoma [2]; W, XPG mRNA >= 1.55",27.7 months
same,Median PFS,"sarcoma [2]; W, XPG mRNA >= 1.55",17.1 months
same,OS at 12 months,"sarcoma [2]; W, XPG mRNA >= 1.55",83.7%
same,PFS at 6 months,"sarcoma [2]; W, XPG mRNA >= 1.55",82.4%
same,Median OS,"sarcoma [2]; W, XPG protein 0 + 1",11.7 months
same,OS at 12 months,"sarcoma [2]; W, XPG protein 0 + 1",47.1%
same,OS at 24 months,"sarcoma [2]; W, XPG protein 0 + 1",40.4%
same,PFS at 6 months,"sarcoma [2]; W, XPG protein 0 + 1",44.0%
same,Median OS,"sarcoma [2]; W, XPG protein 2 + 3",27.7 months
same,Median PFS,"sarcoma [2]; W, XPG protein 2 + 3",8.0 months
same,OS at 12 months,"sarcoma [2]; W, XPG protein 2 + 3",90.0%
same,OS at 24 months,"sarcoma [2]; W, XPG protein 2 + 3",90.0%
same,PFS at 6 months,"sarcoma [2]; W, XPG protein 2 + 3",77.1%
same,Median PFS (KM),sarcoma [2]; genotype H,3.4 months
same,Median Survival (KM),sarcoma [2]; genotype H,6.9 months
same,PFS6 (KM),sarcoma [2]; genotype H,34.6%
same,survival at 12 months,sarcoma [2]; genotype H,34.6%
same,CR + PR + MR + SD ≧ 6,sarcoma [2]; genotype M,0
same,Median PFS (KM),sarcoma [2]; genotype M,1.6 months
same,Median Survival (KM),sarcoma [2]; genotype M,9.1 months
same,PFS6 (KM),sarcoma [2]; genotype M,0%
same,survival at 12 months,sarcoma [2]; genotype M,31.3%
same,Median PFS (KM),sarcoma [2]; genotype W,6.4 months
same,Median Survival (KM),sarcoma [2]; genotype W,19.9 months
same,PFS6 (KM),sarcoma [2]; genotype W,50.8%
same,survival at 12 months,sarcoma [2]; genotype W,54%
same,median duration of the response (CR+PR+MR),sarcoma [2]; whole cohort,7.83 months
same,Median Survival,"sarcoma [2]; whole cohort, 51 patients still censored",9.6 months
same,surviving patients at two years after treatment,"sarcoma [2]; whole cohort, Kaplan-Meier",34.0%
same,Median Survival,sarcoma [2]; [3],15.4 months
same,PFS6 rate,sarcoma [2]; [3],40.2%
same,median progression free survival,sarcoma [2]; [3],3.4 months

# Reference: US20100267732A1, “Prognostic Molecular Markers for ET-743 Treatment” (PHARMA MAR, S.A., priority 2007, published 2010)
